These results are taken from US10118930B2, “Piperidinylpyrazolopyrimidinones and their use” (BAYER PHARMA AKTIENGESELLSCHAFT, priority 2015, dated 2018).

Counter-ions that a name gives are not always drawn.

The subject of the assay is clot lysis (fibrinolysis) in diluted human citrated plasma, tPA-induced. Put plainly: Plasma-based clot lysis assay (5%). Format: biochemical. The conditions noted are these: human citrated platelet-poor plasma 5%, fibrinogen 3 μM, CaCl2 10 mM, tPA 0.2 nM, 37° C., OD at 405 nm. Here is the method: B-2. Plasma-based Clot Lysis Assay (5%)
The clot-lysis test system configures the kinetics of clot formation and degradation in vitro and allows quantifying modulation of the process by selected test compounds.
The test compounds were dissolved in 1% acetic acid and further complemented with an equal volume of DMSO. The resulting stock solutions were serially diluted in 0.5% acetic acid/50% DMSO. 1 μL aliquots of these solutions were placed into 384 well microplates (Greiner, black, transparent bottom), followed by 30 μL of diluted human citrated plasma (platelet-poor, final concentration: 5%; supplemented with fibrinogen, final concentration: 3 μM; dilution buffer: 20 mM HEPES, 150 mM NaCl, 0.01% Brij (pH 7)). The reactions were started by addition of 20 μL of CaCl2 (final concentration: 10 mM), and tPA (tissue plasminogen activator, final concentration: 0.2 nM) in dilution buffer, followed by an additional volume of 20 μL dilution buffer for improved mixing. The reactions were incubated at 37° C. […] IC50 values were determined by comparing the resulting time courses with the time course of a blank control reaction.

Compound `CCOC(=O)c1c(-c2ccccc2)nn2c(C3CCNCC3)cc(=O)[nH]c12` [Example 38, Ethyl 5-oxo-2-phenyl-7-(piperidin-4-yl)-4,5-dihydropyrazolo[1,5-a]pyrimidine-3-carboxylate trifluoroacetate] yielded an IC50 of 18 nM.
As for `Cc1ccc(-c2noc(-c3cnn4c(C5CCNCC5)cc(=O)[nH]c34)n2)cc1` [Example 39, 3-[3-(4-Methylphenyl)-1,2,4-oxadiazol-5-yl]-7-(piperidin-4-yl)pyrazolo[1,5-a]pyrimidin-5 (4H)-hydrochloride], inhibition was half-maximal at 27 nM (IC50).
The figure for `C[C@H]1C[C@H](c2cc(=O)[nH]c3c(Cl)cnn23)CCN1` [Example 40, (−)-trans-3-Chloro-7-(2-methylpiperidin-4-yl)pyrazolo[1,5-a]pyrimidin-5(4H)-one hydrochloride] is 14 nM; for `NC(=O)c1c(-c2ccccc2)nn2c(C3CCNCC3)cc(=O)[nH]c12` [Example 41, 5-Oxo-2-phenyl-7-(piperidin-4-yl)-4,5-dihydropyrazolo[1,5-a]pyrimidine-3-carboxamide trifluoroacetate] it is 19 nM.
The figure for `O=C(c1c(-c2ccccc2)nn2c(C3CCNCC3)cc(=O)[nH]c12)N1CCOCC1` [Example 43, 3-(Morpholin-4-ylcarbonyl)-2-phenyl-7-(piperidin-4-yl)pyrazolo[1,5-a]pyrimidin-5(4H)-one trifluoroacetate] is 27 nM; for `CC(C)CNC(=O)c1c(-c2ccccc2)nn2c(C3CCNCC3)cc(=O)[nH]c12` [Example 44, trifluoroacetate] it is 23 nM; for `O=C(O)c1cc2[nH]c(=O)cc(C3CCNCC3)n2n1` [Example 46, 5-Oxo-7-(piperidin-4-yl)-4,5-dihydropyrazolo[1,5-a]pyrimidine-2-carboxylic acid hydrochloride] it is 69 nM.
The figure for `N#Cc1ccc(-c2cnn3c(C4CCNCC4)cc(=O)[nH]c23)cc1` [Example 47, 4-[5-Oxo-7-(piperidin-4-yl)-4,5-dihydropyrazolo[1,5-a]pyrimidin-3-yl]benzonitrile trifluoroacetate] is 13 nM.
The compound `O=c1cc(C2CCNCC2)n2ncc(-c3cccc(Cl)c3)c2[nH]1` [Example 48, 3-(3-Chlorophenyl)-7-(piperidin-4-yl)pyrazolo[1,5-a]pyrimidin-5(4H)-one hydrochloride] displayed an IC50 of 14 nM.
`N#Cc1ccccc1-c1cnn2c(C3CCNCC3)cc(=O)[nH]c12` [Example 49, 2-[5-Oxo-7-(piperidin-4-yl)-4,5-dihydropyrazolo[1,5-a]pyrimidin-3-yl]benzonitrile trifluoroacetate] gave an IC50 of 16 nM.
The figure for `N#Cc1cccc(-c2cnn3c(C4CCNCC4)cc(=O)[nH]c23)c1` [Example 50, 3-[5-Oxo-7-(piperidin-4-yl)-4,5-dihydropyrazolo[1,5-a]pyrimidin-3-yl]benzonitrile trifluoroacetate] is 24 nM; for `C[C@H]1C[C@H](c2cc(=O)[nH]c3c(C(N)=O)cnn23)CCN1` [Example 51, (−)-trans-7-(2-Methylpiperidin-4-yl)-5-oxo-4,5-dihydropyrazolo[1,5-a]pyrimidine-3-carboxamide trifluoroacetate] it is 16 nM; for `COc1ccc(-c2cnn3c(C4CCNCC4)cc(=O)[nH]c23)cc1` [Example 53, 3-(4-Methoxyphenyl)-7-(piperidin-4-yl)pyrazolo[1,5-a]pyrimidin-5(4H)-one hydrochloride] it is 15 nM.
The figure for `COc1ccc(-c2cnn3c(C4CCNCC4)cc(=O)[nH]c23)cc1OC` [Example 54, 3-(3,4-Dimethoxyphenyl)-7-(piperidin-4-yl)pyrazolo[1,5-a]pyrimidin-5(4H)-one hydrochloride] is 18 nM; for `CS(=O)(=O)c1ccc(-c2cnn3c(C4CCNCC4)cc(=O)[nH]c23)cc1` [Example 55, 3-[4-(Methylsulfonyl)phenyl]-7-(piperidin-4-yl)pyrazolo[1,5-a]pyrimidin-5(4H)-one hydrochloride] it is 19 nM; for `O=c1cc(C2CCNCC2)n2ncc(-c3ccccc3F)c2[nH]1` [Example 56, 3-(2-Fluorophenyl)-7-(piperidin-4-yl)pyrazolo[1,5-a]pyrimidin-5(4H)-one hydrochloride] it is 770 nM.
In turn, `O=c1cc(C2CCNCC2)n2ncc(-c3ccc(C(F)(F)F)cc3)c2[nH]1` [Example 57, 7-(Piperidin-4-yl)-3-[4-(trifluoromethyl)phenyl]pyrazolo[1,5-a]pyrimidin-5(4H)-one hydrochloride] came in with an IC50 of 21 nM.
The figure for `O=c1cc(C2CCNCC2)n2ncc(-c3cccc(C(F)(F)F)c3)c2[nH]1` [Example 58, 7-(Piperidin-4-yl)-3-[3-(trifluoromethyl)phenyl]pyrazolo[1,5-a]pyrimidin-5(4H)-one hydrochloride] is 16 nM; for `O=c1cc(C2CCNCC2)n2ncc(-c3cccs3)c2[nH]1` [Example 59, 7-(Piperidin-4-yl)-3-(2-thienyl)pyrazolo[1,5-a]pyrimidin-5(4H)-one hydrochloride] it is 15 nM.
On to `COc1cccc(-c2cnn3c(C4CCNCC4)cc(=O)[nH]c23)c1` [Example 60, 3-(3-Methoxyphenyl)-7-(piperidin-4-yl)pyrazolo[1,5-a]pyrimidin-5(4H)-one hydrochloride], for which the IC50 is 13 nM.
The figure for `O=c1cc(C2CCNCC2)n2ncc(-c3ccc4c(c3)OCCO4)c2[nH]1` [Example 61, 3-(2,3-Dihydro-1,4-benzodioxin-6-yl)-7-(piperidin-4-yl)pyrazolo[1,5-a]pyrimidin-5 (4H)-one hydrochloride] is 34 nM; for `COc1ccc(OC)c(-c2cnn3c(C4CCNCC4)cc(=O)[nH]c23)c1` [Example 62, 3-(2,5-Dimethoxyphenyl)-7-(piperidin-4-yl)pyrazolo[1,5-a]pyrimidin-5(4H)-one hydrochloride] it is 34 nM; for `O=c1cc(C2CCNCC2)n2ncc(-c3ccccc3C(F)(F)F)c2[nH]1` [Example 63, 7-(Piperidin-4-yl)-3-[2-(trifluoromethyl)phenyl]pyrazolo[1,5-a]pyrimidin-5(4H)-one hydrochloride] it is 40 nM.
The figure for `C[C@H]1C[C@H](c2cc(=O)[nH]c3c(C#N)cnn23)CCN1` [Example 65, (−)-trans-7-(2-Methylpiperidin-4-yl)-5-oxo-4,5-dihydropyrazolo[1,5-a]pyrimidine-3-carbonitrile trifluoroacetate] is 12 nM; for `N#Cc1csc(-c2cnn3c(C4CCNCC4)cc(=O)[nH]c23)c1` [Example 68, 5-[5-Oxo-7-(piperidin-4-yl)-4,5-dihydropyrazolo[1,5-a]pyrimidin-3-yl]thiophene-3-carbonitrile trifluoroacetate] it is 11 nM; for `COc1ccc(-c2cnn3c(C4CCNCC4)cc(=O)[nH]c23)cn1` [Example 69, 3-(6-Methoxypyridin-3-yl)-7-(piperidin-4-yl)pyrazolo[1,5-a]pyrimidin-5 (4H)-one] it is 19 nM.
Regarding `O=c1cc(C2CCNCC2)n2ncc(-c3cccc(OC(F)(F)F)c3)c2[nH]1` [Example 70, 7-(Piperidin-4-yl)-3-[3-(trifluoromethoxy)phenyl]pyrazolo[1,5-a]pyrimidin-5(4H)-one hydrochloride], inhibition was half-maximal at 14 nM (IC50).
The figure for `O=c1cc(C2CCNCC2)n2ncc(-c3ccccc3OC(F)(F)F)c2[nH]1` [Example 71, 7-(Piperidin-4-yl)-3-[2-(trifluoromethoxy)phenyl]pyrazolo[1,5-a]pyrimidin-5(4H)-one hydrochloride] is 34 nM; for `O=c1cc(C2CCNCC2)n2ncc(-c3ccc(F)c(Cl)c3)c2[nH]1` [Example 72, 3-(3-Chloro-4-fluorophenyl)-7-(piperidin-4-yl)pyrazolo[1,5-a]pyrimidin-5(4H)-one hydrochloride] it is 64 nM; for `O=c1cc(C2CCNCC2)n2ncc(S(=O)(=O)c3ccc(Cl)cc3Cl)c2[nH]1` [Example 74, 3-[(2,4-Dichlorophenyl)sulfonyl]-7-(piperidin-4-yl)pyrazolo[1,5-a]pyrimidin-5(4H)-one hydrochloride] it is 18 nM.
The figure for `O=C(Nc1cccc2ccccc12)c1cnn2c(C3CCNCC3)cc(=O)[nH]c12` [Example 75, N-(naphthalen-1-yl)-5-oxo-7-(piperidin-4-yl)-4,5-dihydropyrazolo[1,5-a]pyrimidine-3-carboxamide] is 40 nM.
The figure for `Cc1ccc(F)cc1NC(=O)c1cnn2c(C3CCNCC3)cc(=O)[nH]c12` [Example 76, N-(5-fluoro-2-methylphenyl)-5-oxo-7-(piperidin-4-yl)-4,5-dihydropyrazolo[1,5-a]pyrimidine-3-carboxamide] is 29 nM; for `O=C(NCC1CCCC1)c1cnn2c(C3CCNCC3)cc(=O)[nH]c12` [Example 77] it is 62 nM.
`CN(CC1CC1)C(=O)c1cnn2c(C3CCNCC3)cc(=O)[nH]c12` [Example 78, N-(cyclopropylmethyl)-N-methyl-5-oxo-7-(piperidin-4-yl)-4,5-dihydropyrazolo[1,5-a]pyrimidine-3-carboxamide] returned an IC50 of 48 nM.
The figure for `CCc1cccc(NC(=O)c2cnn3c(C4CCNCC4)cc(=O)[nH]c23)c1` [Example 80, N-(3-ethylphenyl)-5-oxo-7-(piperidin-4-yl)-4,5-dihydropyrazolo[1,5-a]pyrimidine-3-carboxamide] is 33 nM.
